Results reported in patent US12303471B2, “Methods of treatment of temozolomide-resistant glioma using coenzyme Q10” (BPGbio, Inc., priority 2015, dated 2025).
pIC50: −log10 of the molar value.

How the values were obtained:
[1] = tested on: TMZ-resistant glioblastoma; assay: Coenzyme Q10 in TMZ-resistant glioblastoma in humans; format: in vivo; conditions: 4% coenzyme Q10 nanosuspension, 24-, 48- or 96-hour infusion, monotherapy
Protocol: The efficacy of Coenzyme Q10 in treating TMZ-resistant glioblastoma is evaluated in humans using Coenzyme Q10 monotherapy and Coenzyme Q10 in combination with chemotherapy. The Coenzyme Q10 is provided as a 4% coenzyme Q10 nanosuspension formulation as described in WO 2011/112900, the entire contents of which are expressly incorporated herein by reference. The study is designed with dosing schedules of a 24-hour infusion, 48-hour infusion, or 96-hour continuous infusion. This extended dosage schedule is intended to decrease Coenzyme Q10 Cmax values and maintain steady-state levels. Patient survival time and glioblastoma tumor status before, during, and after Coenzyme Q10 treatment is evaluated.

[2] = tested on: triple-negative breast cancer cell line MDA-MB231; assay: Coenzyme Q10 sensitivity (IC50/IC90) of MDA-MB231 cells; format: cell-based; conditions: Homo sapiens, MDA-MB-231
Protocol: (§1) Oxygen consumption rate (OCR) was measured during various states of succinate-fueled mitochondrial respiration in the triple-negative breast cancer cell line MDA-MB231 and the mutant K-Ras-driven pancreatic cancer cell line MIA PaCa-2 treated with different concentrations of Coenzyme Q10. […] The assays were performed in permeabilized adherent cells using the Seahorse XF96 Analyzer. Cells were permeabilized with XF PMP reagent and put into mitochondrial State 3 by replacing the growth media with Mitochondrial Assay Solution (containing mannitol, sucrose, KH2PO4, MgCl2, HEPES, and EGTA) supplemented with succinate, rotenone (to block reverse electron transfer back to Complex I), and ADP. OCR was measured in State 3, and then again upon sequential injection of oligomycin and FCCP to induce State 4o (o=oligomycin) and State 3u (u=uncoupled).

[3] = Coenzyme Q10 plasma levels in rats; format: in vivo; conditions: four days after treatment initiated
Protocol: Coenzyme Q10 plasma levels were measured in the rats bearing C6 gliomas four days after Coenzyme Q10 treatment was initiated.

[4] = tested on: mutant K-Ras-driven pancreatic cancer cell line MIA PaCa-2; assay: Coenzyme Q10 sensitivity (IC50/IC90) of MIA PaCa-2 cells; format: cell-based; conditions: Homo sapiens
Protocol: as §1

[5] = tested on: human U373 cells (TMZ-sensitive and TMZ-resistant GBM cells); assay: TMZ-sensitive and TMZ-resistant U373 glioblastoma tumors in mice; format: in vivo; conditions: intravenous single daily dose of 4% Coenzyme Q10, 50 mg/kg/day
Source text: Equal numbers (1×10^7) of human U373 cells left untreated and thus sensitive (TMZ-sensitive) versus TMZ long-term treated (TMZ-resistant) GBM cells (see Calve et al., 2010, Neoplasia 12(9): 727-739, which is incorporated by reference herein in its entirety) are suspended in MATRIGEL® and injected into mice. Tumors are allowed to develop, and treatment is not initiated unless tumors are present.
Mice having tumors are randomized into 4 groups of 30 mice each as follows: • i. Group 1—No treatment, TMZ-sensitive • ii. Group 2—No treatment, TMZ-resistant • iii. Group 3—Intravenous single daily dose of 4% Coenzyme Q10, 50 mg/kg/day, TMZ-sensitive • iv. Group 4—Intravenous single daily dose of 4% Coenzyme Q10, 50 mg/kg/day, TMZ-resistant
Animals are observed for viability and tumor growth is monitored. Animal survival results are collected through day 400.

MIA PaCa-2 = assay: Oxygen consumption rate during succinate-fueled mitochondrial respiration, permeabilized cells, Seahorse XF96; format: cell-based; conditions: 100, 137 or 274 μM Coenzyme Q10, State 3, State 4o, State 3u, FIG. 1
Protocol: as §1

MDA-MB231 = assay: as above; format: cell-based; conditions: 100, 155 or 310 μM Coenzyme Q10, State 3, State 4o, State 3u, FIG. 1
Protocol: as §1

Rat C6 glioma cells = assay: Rat model of glioma (C6 glioma cell implantation); format: in vivo, Sprague-Dawley rats
Protocol: The C6 glioma cells develop into a glioma-like tumor. The rats bearing C6 gliomas were treated twice per day with 5, 10, 25 or 50 mg/kg Coenzyme Q10 by intraperitoneal or subcutaneous injection. Coenzyme Q10 treatment was initiated 1 day (n=3), 4 days (n=14), or 8 days (n=3) after implantation of C6 glioma cells. Coenzyme Q10 treatment was continued twice daily until the rat died, or until 34 days after implantation of glioma cells. […] Four of the rats treated with Coenzyme Q10 survived for at least 50 days after implantation of the C6 glioma cells, while none of the untreated control rats survived more than 15 days after implantation. In fact, two of the rats treated with Coenzyme Q10 survived more than 100 days post implantation (see below and FIGS. 9 and 10). Of the four rats that were alive at Day 50, 1 received 10 mg/kg Coenzyme Q10 starting 4 days after implantation, and 3 received 50 mg/kg Coenzyme Q10 starting 4 days or 8 days after implantation.
Enlarged ventricles (hydrocephalus) were present 27 days post C6 implantation (FIG. 9A). At 34 days post-implantation, enlarged ventricles were stilled observed. In addition, there was a complex mass in the tumor area which was not clearly growing (FIG. 9B). Coenzyme Q10 treatment was discontinued at Day 34. […] At 27 days post C6 implantation, a complex mass was visible, but it was unclear if this mass represented a tumor or a scar (FIG. 10A). At 34 days post C6 implantation, a scar was visible at the site of implantation and improvement in the overall condition of the rat was observed that was not consistent with tumor growth (FIG. 10B).

MDA-MB231 cells [6] = assay: CellTiter-Fluor viability assay, co-treatment with Coenzyme Q10 and Complex II inhibitors; conditions: 5 μM Atpenin A5 with 0-1600 μM Coenzyme Q10, 72 h; FIG. 4
Protocol: To assess whether the effects of Coenzyme Q10 on Complex II-mediated respiration are functionally linked to Coenzyme Q10-induced cytotoxicity, MDA-MB231 cells were co-treated with two inhibitors of Complex II (atpenin A5 and malonate) which act at separate sites in Complex II.
The viability of MDA-MB231 cells treated with atpenin A5 and Coenzyme Q10 or malonate and Coenzyme Q10 was determined by a CellTiter-Fluor viability assay (Promega, Cat. No. G6080). Briefly, cells were co-treated with 0, 25, 50, 100, 200, 400, 800 or 1600 μM Coenzyme Q10 and either 5 μM Atpenin A5 or 5 mM malonic acid for 72 h, and then assayed per the manufacture's protocol.

MDA-MB231 cells [7] = assay: Propidium iodide (PI) and Annexin V flow cytometry cell death assay; format: cell-based; conditions: malonate 5 mM with Coenzyme Q10 155 μM or 310 μM, 72 hours; FIG. 5
Protocol: MDA-MB231 cells were treated with Coenzyme Q10 and/or malonate as shown below: • 1. Untreated • 2. Malonate (5 mM) • 3.
At 72 hours post treatment, cell culture supernatant (containing detached apoptotic cells) and adherent cells were harvested by trypsinization, centrifuged at 500 g for 5 minutes, and the resulting pellets were washed in staining media (PBS, 0.5% FBS). Cells were co-stained with FITC conjugated anti-Annexin-V (1:100, Molecular Probes) to detect PS exposure on the outer membrane surface and Propidium Iodine (PI, 1:2500, Molecular Probes) in 200 μL binding buffer (Molecular Probes). After a 15 minute incubation in the dark, the percentage of Annexin V+/PI+ cells was analyzed using an Accuri C6 Flow Cytometer (BD Biosciences) and samples were run within one hour after staining.
The cells were rated as follows: • 1. PI-negative and Annexin V-negative: viable • 2. PI-negative and Annexin V-positive: early apoptosis • 3. PI-positive and Annexin V-positive: late apoptosis • 4. PI-positive and Annexin V-negative: dead.

[8] = tested on: recurrent high-grade gliomas; conditions: patients with recurrent high-grade gliomas; cited from earlier work

Molecule: COC1=C(OC)C(=O)C(CC=C(C)CCC=C(C)CCC=C(C)CCC=C(C)CCC=C(C)CCC=C(C)CCC=C(C)CCC=C(C)CCC=C(C)CCC=C(C)C)=C(C)C1=O [Coenzyme Q10, 2-(3,7,11,15,19,23,27,31,35,39-decamethyltetraconta-2,6,10,14,18,22,26,30,34,38-decaenyl)-5,6-dimethoxy-3-methyl-cyclohexa-2,5-diene-1,4-dione]
- tumor growth relative to standard chemotherapy [1]: reduce tumor growth
- pIC50 [2]: 3.81
- IC90 [2]: 310 µM
- dose that resulted in the highest Coenzyme Q10 plasma levels ([3]; 5, 10, 25 or 50 mg/kg twice daily intraperitoneal, FIG. 12): 25 mg/kg
- Coenzyme Q10 plasma levels, intraperitoneal compared to subcutaneous injection ([3]; rats bearing C6 gliomas, 50 mg/kg twice daily, FIG. 11): significantly higher
- pIC50 [4]: 3.86
- IC90 [4]: 274 µM
- glioblastoma tumor growth compared to control (untreated) animals [5]: significantly reduced glioblastoma tumor growth
- survival compared to control (untreated) animals ([5]; through day 400): significantly increased survival
- succinate-fueled respiration (oxygen consumption rate) (MIA PaCa-2): significantly decreased by Coenzyme Q10 in a dose dependent manner
- succinate-fueled respiration (oxygen consumption rate) (MDA-MB231): significantly decreased by Coenzyme Q10 in a dose dependent manner
- condition of surviving rat, coronal sections (Rat C6 glioma cells; 10 mg/kg twice daily i.p. from day 4, discontinued Day 34, 103 days post-implantation, FIG. 9C): appeared normal with possible scar tissue in the tumor area
- rats alive at Day 50 (Rat C6 glioma cells; 10 mg/kg twice daily, starting 4 days after implantation): 1
- condition of surviving rat, coronal sections (Rat C6 glioma cells; 50 mg/kg twice daily i.p. from day 4, 103 days after C6 implantation, FIG. 10C): clinically normal
- rats alive at Day 50 (Rat C6 glioma cells; 50 mg/kg twice daily, starting 4 days or 8 days after implantation): 3
- rats that survived for at least 50 days after implantation of the C6 glioma cells (Rat C6 glioma cells; 5, 10, 25 or 50 mg/kg twice per day intraperitoneal, n=20, no untreated control (n=33) survived more than 15 days): Four
- rats that survived more than 100 days post implantation (Rat C6 glioma cells; Coenzyme Q10 twice daily intraperitoneal, n=20): two

Molecule: COc1[nH]c(=O)c(C(=O)[C@@H](C)C[C@H](C)[C@@H](Cl)CCl)c(O)c1OC [atpenin A5]
- effect of co-treatment on Coenzyme Q10-induced cytotoxicity (MDA-MB231 cells [6]): enhanced cytotoxicity

Molecule: O=C(O)CC(=O)O [malonate]
- effect on Coenzyme Q10-induced cell death (MDA-MB231 cells [7]): attenuated Coenzyme Q10-induced cell death

Molecule: Bevacizumab: monoclonal antibody against vascular endothelial growth factor (VEGF)
- overall median survival [8]: improved overall median survival
- response rates [8]: 32-62%
